Test results from patent publication US20100029752A1, “NOVEL COMPOUNDS, PHARMACEUTICAL COMPOSITIONS CONTAINING SAME, AND METHODS OF USE FOR SAME” (priority 2005, published 2010).
≈ marks a conversion by molar mass, not a printed value.

Legend:
Format in all cases: cell-based
[1] = system: MCF-7 human breast cancer cells; test: Crystal violet cell growth assay; conditions: MCF7, MCF-7 cells, 72 hours, read-out: Cr. Violet (IC50)
Method: The crystal violet assay measures cell growth but not cytotoxicity. This assay employs crystal violet staining of fixed cells in 96-well plates with subsequent solubilization and measurement of OD490 on a spectrophotometer. The OD490 corresponds to cell growth per unit time measured. Cells are treated with the compounds of interest or vehicle controls and IC50 for each compound is computed.
To measure the cytotoxicity of specific compounds against cancer cells, 5×10^4 MCF-7 human breast cancer cells, obtained from the American Type Culture Collection are plated per well in 24 well plates in DMEM medium with 10% fetal bovine serum, penicillin, and streptomycin. Following overnight culture at 37° C. and 5% CO2, the compounds to be tested, dissolved in DMSO, are added to the wells in 1 μl volume at the following concentrations: 50, 40, 30, 20, and 10 μg/ml in triplicate. Additional concentrations are tested if required. 1 μl of DMSO is added to triplicate wells are the vehicle control. C75 is run at 10, and 5 μg/ml in triplicate as positive controls.
After 72 hours of incubation, cells are stained with 0.5 ml of Crystal Violet stain (0.5% in 25% methanol) in each well. After 10 minutes, wells are rinsed, air dried, and then solubilized with 0.5 ml 10% sodium dodecylsulfate with shaking for 2 hours. Following transfer of 100 μl from each well to a 96-well plate, plates are read at OD490 on a Molecular Devices SpectraMax Plus Spectrophotometer Average OD490 values are computed using SOFTmax Pro Software (Molecular Devices) and IC50 values are determined by linear regression analysis using Prism version 3.02 (Graph Pad Software, San Diego).

[2] = system: fatty acid synthesis pathway activity in MCF-7 human breast cancer cells; test: [14C]acetate incorporation into total lipids; conditions: MCF-7 cells, [14C]acetate into lipids; for IC50: Homo sapiens, MCF7
Method: This assay measures the incorporation of [^14C]acetate into total lipids and is a measure of fatty acid synthesis pathway activity in vitro. It is utilized to measure inhibition of fatty acid synthesis in vitro.
MCF-7 human breast cancer cells cultured as above, are plated at 5×10^4 cells per well in 24-well plates. Following overnight incubation, the compounds to be tested, solubilized in DMSO, are added at 5, 10, and 20 μg/ml in triplicate, with lower concentrations tested if necessary. DMSO is added to triplicate wells for a vehicle control. C75 is run at 5 and 10 μg/ml in triplicate as positive controls. After 4 hours of incubation, 0.25 μCi of [^14C]acetate (10 μl volume) is added to each well.
After 2 hours of additional incubation, medium is aspirated from the wells and 800 μl of chloroform:methanol (2:1) and 700 μl of 4 mM MgCl2 is added to each well. Contents of each well are transferred to 1.5 Eppendorf tubes, and spun at full-speed for 2 minutes in a high-speed Eppendorf Microcentrifuge 5415D. After removal of the aqueous (upper) layer, an additional 700 μl of chloroform:methanol (2:1) and 500 μl of 4 mM MgCl2 are added to each tube and then centrifuged for 1 minutes as above. The aqueous layer is removed with a Pasteur pipette and discarded. An additional 400 μl of chloroform:methanol (2:1) and 200 μl of 4 mM MgCl2 are added to each tube, then centrifuged and aqueous layer is discarded. The lower (organic) phase is transferred into a scintillation vial and dried at 40° C. under N2 gas. Once dried, 3 ml of scintillant (APB #NBC5104) is added and vials are counted for ^14C. The Beckman Scintillation counter calculates the average cpm values for triplicates.
The IC50 for the compounds is defined as the concentration of drug leading to a 50% reduction in [^14C]acetate incorporation into lipids compared to controls. This is determined by plotting the average cpm for each inhibitor concentration tested, performing linear regression and computing the best-fit line, r^2 values, and 95% confidence intervals. The average cpm values are computed by the Beckman scintillation counter (Model LS6500) for each compound concentration. Computation of linear regression, best-fit line, r^2, and 95% confidence intervals are calculated using Prism Version 3.0 (Graph Pad Software).

OV = test: XTT cytotoxicity assay (OV); conditions: (OV) cells
Method: The XTT assay is a non-radioactive alternative for the [^51Cr] release cytotoxicity assay. XTT is a tetrazolium salt that is reduced to a formazan dye only by metabolically active, viable cells. The reduction of XTT is measured spectrophotometrically as OD490-OD650. After 72 hours of incubation, cells are incubated for 4 hours with the XTT reagent as per manufacturer's instructions (Cell Proliferation Kit 11 (XTT) Roche). Plates are read at OD490 and OD650 on a Molecular Devices SpectraMax Plus Spectrophotometer. Three wells containing the XTT reagent without cells serve as the plate blank. XTT data are reported as OD490-OD650. Averages and standard error of the mean are computed using SOFTmax Pro software (Molecular Dynamics). The IC50 for the compounds is defined as the concentration of drug leading to a 50% reduction in OD490-OD650 compared to controls. The OD490-OD650 are computed by the SOFTmax PRO software (Molecular Devices) for each compound concentration. IC50 is calculated by linear regression, plotting the FAS activity as percent of control versus drug concentrations. Linear regression, best-fit line, r^2, and 95% confidence intervals are determined using Prism Version 3.0 (Graph Pad Software).

Row | IC50 [1] [µg/mL] | IC50 [2] [µg/mL] | 14C (IC50) [2] | SMILES | IC50 (OV) [µg/mL]
1 | > 80 | 55.2 (≈ 273 µM) |  | COC(=O)c1sc(C(=O)O)cc1O | > 80
2 | > 80 |  | Neg | C=CCNC(=O)c1cc(O)c(C(=O)OC)s1 | > 80
3 | 18.1 ± 4.4 (≈ 55.4 µM) | 25.2 (≈ 77.1 µM) |  | COC(=O)c1sc(C(=O)NNc2ccc(Cl)cc2)cc1O | 50 ± 5 (≈ 153 µM)

The remaining lines, values behind:

Row | SMILES | IC50 [1] [µg/mL] | IC50 [2] [µg/mL] | 14C (IC50) [2] | IC50 (OV) [µg/mL]
4 | CCCCCCCCNC(=O)c1cc(O)c(C(=O)OC)s1 | 38.8 (≈ 124 µM) | 20.5 (≈ 65.4 µM) |  | 37.1 (≈ 118 µM)
5 | CCCCCCCCNNC(=O)c1cc(O)c(C(=O)OC)s1 | 31.7 (≈ 96.5 µM) | 41.2 (≈ 125 µM) |  | 77.1 (≈ 235 µM)
6 | CCCCCCCCNC(=O)c1cc(O)cs1 | 8.5 ± 2.1 (≈ 33.3 µM) | 17.6 ± 1.9 (≈ 68.9 µM) |  | 9.5 (≈ 37.2 µM)
